Where “and” joins values, the source holds several entries; their conditions need not be identical. Equal entries are not always repeated. Where two headings read alike, the source gives them in different places.
Assays:
Assay type in all cases: cell-based
[1] = test system: vesicular stomatitis virus (VSV); details: for Log Inact. / Post-Txt Titer / Pre-Txt Titer: 30 μM, listed as amotosalen; for Log inactivation / Post-treatment titer / Pre-treatment titer: 150 μM
platelets = test: Platelet quality, platelets in 100% plasma: 75 μM amotosalen + 340 nm (~6.4 or ~7.2 J/cm^2) or 150 μM + INT-100 (~3.6 J/cm^2, with CAD)
S. epidermidis = test: Amotosalen and UV light (265-385 nm LEDs) treatment of S. epidermidis in plasma, colony forming unit assay; details: 15 μM amotosalen, ~3 J/cm^2, plasma
From the text: This system comprised single arrays facing (e.g., opposing) a platform positioned for the illumination of biological fluids placed on the platform (see e.g., FIG. 5). System controls provided for adjustment of the LEDs during treatment of the biological fluid samples, controlling both the timing and intensity of illumination by the LEDs to achieve a desired light UV light dose. Evaluation of photochemical conversion, photoproduct formation, pathogen inactivation, and plasma and/or platelet quality parameters are performed for each light source wavelength as described previously. In one study using the device, photochemical inactivation of various bacteria were tested for each of the above-referenced LEDs together with amotosalen. The bacteria included E. coli (Gram negative), S. epidermidis (Gram positive), and P. acnes (anaerobe). As there are known germicidal effects of ultraviolet light with wavelengths in the UVC and UVB range, the study was controlled to determine for each LED wavelength the total inactivation levels, as well as inactivation levels specifically resulting from the UV light (without added amotosalen) or the photochemical treatment process itself.

Structure (SMILES): Cc1oc2c(C)c3oc(=O)cc(C)c3cc2c1COCCN [S-59, 3-(2-aminoethoxymethyl)-2,5,9-trimethylfuro[3,2-g]chromen-7-one]
- Log Inact. ([1]; 220 mL, 340 nm LED ~3.0 J/cm^2): 2.28 log and 2.39 log
- Post-Txt Titer ([1]; 220 mL, 340 nm LED ~3.0 J/cm^2): 4.32 log10 and 2.85 log10
- Log Inact. ([1]; 220 mL, INT 100 ~3.0 J/cm^2): 2.02 log and 1.97 log
- Post-Txt Titer ([1]; 220 mL, INT 100 ~3.0 J/cm^2): 4.58 log10 and 3.27 log10
- Pre-Txt Titer ([1]; 220 mL): 6.60 log10 and 5.24 log10
- Log Inact. ([1]; 350 mL, 340 nm LED ~3.0 J/cm^2): 2.34 log and 2.21 log
- Post-Txt Titer ([1]; 350 mL, 340 nm LED ~3.0 J/cm^2): 4.26 log10 and 3.03 log10
- Log Inact. ([1]; 350 mL, INT 100 ~3.0 J/cm^2): 1.76 log and 1.66 log
- Post-Txt Titer ([1]; 350 mL, INT 100 ~3.0 J/cm^2): 4.93 log10 and 3.58 log10
- Pre-Txt Titer ([1]; 350 mL): 6.60 log10 and 5.24 log10
- Log inactivation ([1]; 340 nm LED ~6.4 J/cm^2): 4.6 log
- Post-treatment titer ([1]; 340 nm LED ~6.4 J/cm^2): 1.7 log PFU
- Pre-treatment titer ([1]; 340 nm unit): 6.3 log PFU
- Log inactivation ([1]; 365 nm LED ~6.4 J/cm^2): 3.0 log
- Post-treatment titer ([1]; 365 nm LED ~6.4 J/cm^2): 3.3 log PFU
- Pre-treatment titer ([1]; 365 nm unit): 6.3 log PFU
- Pre-treatment titer ([1]; INT-100 unit): 6.3 log PFU
- Log inactivation ([1]; INT-100 ~6.4 J/cm^2): 3.4 log
- Post-treatment titer ([1]; INT-100 ~6.4 J/cm^2): 2.9 log PFU
- Extent of Shape Change (ESC) (platelets; 340/~6.4, D5): 22.15
- Hypotonic Shock Response (HSR) (platelets; 340/~6.4, D5): 56.50
- Morphology (Kunicki score) (platelets; 340/~6.4, D5): 271.50
- P-selectin (CD62P) (platelets; 340/~6.4, D5): 51.70
- pCO2 (platelets; 340/~6.4, D5): 35.00 mmHg
- pH @ 22° C. (platelets; 340/~6.4, D5): 7.15
- pH @ 37° C. (platelets; 340/~6.4, D5): 6.92
- pO2 (platelets; 340/~6.4, D5): 59.75 mmHg
- Extent of Shape Change (ESC) (platelets; 340/~6.4, D7): 16.45
- Hypotonic Shock Response (HSR) (platelets; 340/~6.4, D7): 45.98
- Morphology (Kunicki score) (platelets; 340/~6.4, D7): 259.00
- P-selectin (CD62P) (platelets; 340/~6.4, D7): 67.65
- pCO2 (platelets; 340/~6.4, D7): 30.95 mmHg
- pH @ 22° C. (platelets; 340/~6.4, D7): 6.95
- pH @ 37° C. (platelets; 340/~6.4, D7): 6.72
- pO2 (platelets; 340/~6.4, D7): 61.80 mmHg
- pCO2 (platelets; 340/~6.4, Post-UVA): 43.60 mmHg
- pH @ 22° C. (platelets; 340/~6.4, Post-UVA): 7.30
- pH @ 37° C. (platelets; 340/~6.4, Post-UVA): 7.07
- pO2 (platelets; 340/~6.4, Post-UVA): 42.90 mmHg
- Extent of Shape Change (ESC) (platelets; 340/~6.4, Pre-UVA): 20.60
- Hypotonic Shock Response (HSR) (platelets; 340/~6.4, Pre-UVA): 45.40
- Morphology (Kunicki score) (platelets; 340/~6.4, Pre-UVA): 265.50
- P-selectin (CD62P) (platelets; 340/~6.4, Pre-UVA): 31.95
- pCO2 (platelets; 340/~6.4, Pre-UVA): 55.20 mmHg
- pH @ 22° C. (platelets; 340/~6.4, Pre-UVA): 7.29
- pH @ 37° C. (platelets; 340/~6.4, Pre-UVA): 7.06
- pO2 (platelets; 340/~6.4, Pre-UVA): 37.60 mmHg
- Extent of Shape Change (ESC) (platelets; 340/~7.2, D5): 26.73
- Hypotonic Shock Response (HSR) (platelets; 340/~7.2, D5): 51.87
- Morphology (Kunicki score) (platelets; 340/~7.2, D5): 287.67
- P-selectin (CD62P) (platelets; 340/~7.2, D5): 45.00
- pCO2 (platelets; 340/~7.2, D5): 37.47 mmHg
- pH @ 22° C. (platelets; 340/~7.2, D5): 7.11
- pH @ 37° C. (platelets; 340/~7.2, D5): 6.88
- pO2 (platelets; 340/~7.2, D5): 49.33 mmHg
- Extent of Shape Change (ESC) (platelets; 340/~7.2, D7): 19.47
- Hypotonic Shock Response (HSR) (platelets; 340/~7.2, D7): 49.47
- Morphology (Kunicki score) (platelets; 340/~7.2, D7): 254.67
- P-selectin (CD62P) (platelets; 340/~7.2, D7): 56.93
- pCO2 (platelets; 340/~7.2, D7): 32.70 mmHg
- pH @ 22° C. (platelets; 340/~7.2, D7): 6.94
- pH @ 37° C. (platelets; 340/~7.2, D7): 6.72
- pO2 (platelets; 340/~7.2, D7): 56.07 mmHg
- pCO2 (platelets; 340/~7.2, Post-UVA): 47.23 mmHg
- pH @ 22° C. (platelets; 340/~7.2, Post-UVA): 7.32
- pH @ 37° C. (platelets; 340/~7.2, Post-UVA): 7.09
- pO2 (platelets; 340/~7.2, Post-UVA): 32.93 mmHg
- Extent of Shape Change (ESC) (platelets; 340/~7.2, Pre-UVA): 23.50
- Hypotonic Shock Response (HSR) (platelets; 340/~7.2, Pre-UVA): 49.67
- Morphology (Kunicki score) (platelets; 340/~7.2, Pre-UVA): 279.33
- P-selectin (CD62P) (platelets; 340/~7.2, Pre-UVA): 27.77
- pCO2 (platelets; 340/~7.2, Pre-UVA): 54.43 mmHg
- pH @ 22° C. (platelets; 340/~7.2, Pre-UVA): 7.31
- pH @ 37° C. (platelets; 340/~7.2, Pre-UVA): 7.08
- pO2 (platelets; 340/~7.2, Pre-UVA): 31.77 mmHg
- Extent of Shape Change (ESC) (platelets; INT-100, D5): 25.20
- Hypotonic Shock Response (HSR) (platelets; INT-100, D5): 55.10
- Morphology (Kunicki score) (platelets; INT-100, D5): 265.67
- P-selectin (CD62P) (platelets; INT-100, D5): 39.07
- pCO2 (platelets; INT-100, D5): 31.83 mmHg
- pH @ 22° C. (platelets; INT-100, D5): 7.16
- pH @ 37° C. (platelets; INT-100, D5): 6.93
- pO2 (platelets; INT-100, D5): 69.77 mmHg
- Extent of Shape Change (ESC) (platelets; INT-100, D7): 19.82
- Hypotonic Shock Response (HSR) (platelets; INT-100, D7): 46.00
- Morphology (Kunicki score) (platelets; INT-100, D7): 274.67
- P-selectin (CD62P) (platelets; INT-100, D7): 58.77
- pCO2 (platelets; INT-100, D7): 28.47 mmHg
- pH @ 22° C. (platelets; INT-100, D7): 6.96
- pH @ 37° C. (platelets; INT-100, D7): 6.74
- pO2 (platelets; INT-100, D7): 70.37 mmHg
- pCO2 (platelets; INT-100, Post-UVA): 54.60 mmHg
- pH @ 22° C. (platelets; INT-100, Post-UVA): 7.17
- pH @ 37° C. (platelets; INT-100, Post-UVA): 6.94
- pO2 (platelets; INT-100, Post-UVA): 62.87 mmHg
- Extent of Shape Change (ESC) (platelets; INT-100, Pre-UVA): 23.50
- Hypotonic Shock Response (HSR) (platelets; INT-100, Pre-UVA): 49.67
- Morphology (Kunicki score) (platelets; INT-100, Pre-UVA): 279.33
- P-selectin (CD62P) (platelets; INT-100, Pre-UVA): 27.77
- pCO2 (platelets; INT-100, Pre-UVA): 54.43 mmHg
- pH @ 22° C. (platelets; INT-100, Pre-UVA): 7.31
- pH @ 37° C. (platelets; INT-100, Pre-UVA): 7.08
- pO2 (platelets; INT-100, Pre-UVA): 31.77 mmHg
- Log reduction from S-59 (S. epidermidis; 265 nm): 0.89 log
- Log reduction total (S. epidermidis; 265 nm): 5.23 log
- Log reduction from S-59 (S. epidermidis; 280 nm): 1.56 log
- Log reduction total (S. epidermidis; 280 nm): 5.02 log
- Log reduction from S-59 (S. epidermidis; 310 nm): 6.68 log
- Log reduction total (S. epidermidis; 310 nm): 7.19 log
- Log reduction from S-59 (S. epidermidis; 325 nm): 7.17 log
- Log reduction total (S. epidermidis; 325 nm): 7.18 log
- Log reduction from S-59 (S. epidermidis; 340 nm): 7.18 log
- Log reduction total (S. epidermidis; 340 nm): 7.28 log
- Log reduction from S-59 (S. epidermidis; 365 nm): 7.32 log
- Log reduction total (S. epidermidis; 365 nm): 7.26 log
- Log reduction from S-59 (S. epidermidis; 385 nm): 1.85 log
- Log reduction total (S. epidermidis; 385 nm): 1.76 log

— patent US12214092B2, “Systems and methods for treating biological fluids” (Cerus Corporation, priority 2017, dated 2025)
